# Laboratory results reported in ChEMBL document CHEMBL6092174, “Synthesis and anti-influenza virus activity of substituted dibenzoxepine-based baloxavir derivatives” (Eur J Med Chem, 2024).
# pEC50: −log10 of the molar value. Activity calls are given as the source filed them. The rule behind the calls is not given here.
# How the values were obtained:
# [1] = Metabolic stability in human liver microsomes assessed as half life at 1 uM in presence of NADPH by LC-MS/MS analysis; format: ADME, Microsome; conditions: time 60 min
# [2] = Selectivity index, ratio of CC50 for cytotoxicty against MDCK cells to EC50 for antiviral activity against Influenza A virus H3N2 (A/Aichi/2/68) infected in dog MDCK cells; format: toxicity, cell-based; conditions: read-out: Selectivity Index
# Influenza A virus [3] = test: Antiviral activity against Influenza A virus H1N1(A/Puetro Rico/8/34) infected in dog MDCK cells assessed as reduction in cytopathic effect incubated for 2 days; format: functional, organism-based; conditions: 48 h
# [4] = Cytotoxicity against dog MDCK cells assessed as reduction in cell viability incubated for 2 days by CCK-8 assay; format: toxicity, cell-based, Canis lupus familiaris; conditions: time 2 day
# Influenza A virus [5] = test: Antiviral activity against Influenza A virus H1N1(A/FM/1/47) infected in dog MDCK cells assessed as reduction in cytopathic effect incubated for 2 days; format: functional, organism-based; conditions: 48 h
# Influenza A virus [6] = test: Potency index, ratio of baloxavir EC50 to test compound EC50 for antiviral activity against Influenza A virus H3N2 (A/Aichi/2/68) infected in dog MDCK cells assessed as reduction in cytopathic effect incubated for 2 days; format: functional; conditions: time 2 day
# [7] = Half life in CD-1 mouse at 1 mg/kg, iv measured upto 24 hrs by LC-MS/MS analysis; format: ADME, organism-based; conditions: in vivo
# [8] = Metabolic stability in mouse liver microsomes assessed as half life at 1 uM in presence of NADPH by LC-MS/MS analysis; format: ADME, Microsome; conditions: time 60 min
# Influenza A virus [9] = test: Antiviral activity against Influenza A virus H1N1 infected in dog MDCK cells assessed as disruption of nuclear protein expression at 10 to 20 nM by Western blot analysis; format: functional, organism-based; conditions: dose 10-20 nM
# [10] = MRT (0 to infinity) in CD-1 mouse at 15 mg/kg, po measured upto 24 hrs by LC-MS/MS analysis; format: ADME, organism-based; conditions: in vivo
# HEK293T [11] = test: Inhibition of Influenza A virus RdRp transfected in HEK293T co-expressing PB1/PB2/PA/NP/firefly luciferase/Renilla luciferase incubated for 24 hrs relative to control; format: cell-based; conditions: dose or concentration not given here
# [12] = MRT (0 to infinity) in CD-1 mouse at 1 mg/kg, iv measured upto 24 hrs by LC-MS/MS analysis; format: ADME, organism-based; conditions: in vivo
# Influenza A virus [13] = test: Antiviral activity against Influenza A virus H3N2 (A/Aichi/2/68) infected in dog MDCK cells assessed as reduction in cytopathic effect incubated for 2 days; format: functional, organism-based; conditions: 48 h
# Influenza B virus = test: Antiviral activity against Influenza B virus IBV/Lee/40 infected in dog MDCK cells assessed as reduction in cytopathic effect incubated for 2 days by TCID50 method; format: functional, organism-based; conditions: IBV/Lee/40, MDCK, 48 h
# [14] = Tmax in CD-1 mouse at 1 mg/kg, iv measured upto 24 hrs by LC-MS/MS analysis; format: ADME, organism-based; conditions: in vivo
# [15] = AUC (0 to infinity) in CD-1 mouse at 15 mg/kg, po measured upto 24 hrs by LC-MS/MS analysis; format: ADME, organism-based; conditions: in vivo
# [16] = Oral bioavailability in CD-1 mouse at 15 mg/kg measured upto 24 hrs by LC-MS/MS analysis; format: ADME, organism-based; conditions: in vivo
# [17] = Metabolic stability in mouse liver microsomes assessed as intrinsic clearance at 1 uM incubated for 60 mins in presence of NADPH by LC-MS/MS analysis; format: ADME, Microsome; conditions: 1 h
# [18] = Cmax in CD-1 mouse at 1 mg/kg, iv measured upto 24 hrs by LC-MS/MS analysis; format: ADME, organism-based; conditions: in vivo
# [19] = Metabolic stability in human liver microsomes assessed as intrinsic clearance at 1 uM incubated for 60 mins in presence of NADPH by LC-MS/MS analysis; format: ADME, Microsome; conditions: 1 h
# [20] = Tmax in CD-1 mouse at 15 mg/kg, po measured upto 24 hrs by LC-MS/MS analysis; format: ADME, organism-based; conditions: in vivo
# [21] = Cmax in CD-1 mouse at 15 mg/kg, po measured upto 24 hrs by LC-MS/MS analysis; format: ADME, organism-based; conditions: in vivo
# [22] = Half life in CD-1 mouse at 15 mg/kg, po measured upto 24 hrs by LC-MS/MS analysis; format: ADME, organism-based; conditions: in vivo
# Influenza A virus [23] = test: Antiviral activity against Influenza A virus H1N1 infected in dog MDCK cells assessed as reduction in polymerase acidic protein expression at 10 to 20 nM by Western blot analysis; format: functional, organism-based; conditions: dose 10-20 nM
# [24] = AUC (0 to infinity) in CD-1 mouse at 1 mg/kg, iv measured upto 24 hrs by LC-MS/MS analysis; format: ADME, organism-based; conditions: in vivo
# HEK293T [25] = test: Inhibition of Influenza A virus RdRp transfected in HEK293T co-expressing PB1/PB2/PA/NP/firefly luciferase/Renilla luciferase at 1 nM incubated for 24 hrs relative to control; format: cell-based
structure (smiles),measurement,setting,value
O=C1c2c(O)c(=O)ccn2N([C@@H]2c3ccccc3OCc3c(Cl)cccc32)[C@@H]2COCCN12,half-life at 1 µM,[1],2.57 h
same,selectivity ratio,[2],31600
same,pEC50,Influenza A virus [3],7.84
same,CC50 at 48 h,[4],24600 nM
same,pEC50,Influenza A virus [5],8.21
same,Ratio,Influenza A virus [6],>5
same,half-life,[7],1.99 h
same,half-life at 1 µM,[8],2.27 h
same,Activity,Influenza A virus [9],Active
same,MRT inf,[10],6.25 h
same,inhibition,HEK293T [11],72%
same,MRT inf,[12],2.57 h
same,pEC50,Influenza A virus [13],9.11
same,pEC50,Influenza B virus,8.63
same,Tmax,[14],4.8 min
same,AUC(0-inf),[15],1680 ng·h/mL
same,bioavailability,[16],31.5%
same,CLint,[17],10.2 µL/min/mg
same,Cmax,[18],258 ng/mL
same,CLint,[19],9 µL/min/mg
same,Tmax,[20],2.67 h
same,Cmax,[21],222 ng/mL
same,half-life,[22],4.45 h
same,Activity,Influenza A virus [23],Active
same,AUC(0-inf),[24],355 ng·h/mL
O=C1c2c(O)c(=O)ccn2N([C@@H]2c3ccc(F)cc3COc3ccccc32)[C@@H]2COCCN12,selectivity ratio,[2],14100
same,CC50 at 48 h,[4],35200 nM
same,pEC50,Influenza A virus [13],8.60
O=C1c2c(O)c(=O)ccn2N([C@H]2c3ccccc3COc3cc(F)ccc32)[C@@H]2COCCN12,selectivity ratio,[2],> 42700
same,CC50 at 48 h,[4],> 50000 nM
same,pEC50,Influenza A virus [13],8.93
O=C1c2c(O)c(=O)ccn2N([C@H]2c3ccccc3OCc3c2ccc(F)c3F)[C@@H]2COCCN12,selectivity ratio,[2],15900
same,CC50 at 48 h,[4],33000 nM
same,pEC50,Influenza A virus [13],8.68
O=C1c2c(O)c(=O)ccn2N([C@@H]2c3ccccc3COc3ccccc32)[C@@H]2COCCN12,selectivity ratio,[2],> 28600
same,CC50 at 48 h,[4],> 50000 nM
same,pEC50,Influenza A virus [13],8.76
O=C1c2c(O)c(=O)ccn2N([C@H]2c3ccccc3OCc3c(Cl)cccc32)[C@@H]2COCCN12,selectivity ratio,[2],23200
same,CC50 at 48 h,[4],15600 nM
same,pEC50,Influenza A virus [13],9.17
O=C1c2c(O)c(=O)ccn2N([C@@H]2c3ccccc3COc3c2ccc(F)c3F)[C@@H]2COCCN12,selectivity ratio,[2],13500
same,CC50 at 48 h,[4],22100 nM
same,pEC50,Influenza A virus [13],8.79
N#Cc1ccc2c(c1)COc1ccccc1[C@H]2N1[C@@H]2COCCN2C(=O)c2c(O)c(=O)ccn21,selectivity ratio,[2],> 5300
same,CC50 at 48 h,[4],> 50000 nM
same,pEC50,Influenza A virus [13],8.03
O=C1c2c(O)c(=O)ccn2N([C@@H]2c3ccccc3COc3cc(C(F)(F)F)ccc32)[C@@H]2COCCN12,selectivity ratio,[2],> 2910
same,CC50 at 48 h,[4],> 50000 nM
same,pEC50,Influenza A virus [13],7.76
O=C1c2c(O)c(=O)ccn2N([C@@H]2c3ccccc3COc3cc(F)ccc32)[C@@H]2COCCN12,selectivity ratio,[2],> 12800
same,CC50 at 48 h,[4],> 50000 nM
same,pEC50,Influenza A virus [13],8.41
O=C1c2c(O)c(=O)ccn2N([C@H]2c3ccccc3COc3ccccc32)[C@@H]2COCCN12,selectivity ratio,[2],> 47200
same,CC50 at 48 h,[4],> 50000 nM
same,pEC50,Influenza A virus [13],8.97
CCOC(=O)Cc1ccc2c(c1)[C@@H](N1[C@@H]3COCCN3C(=O)c3c(O)c(=O)ccn31)c1ccccc1CO2,selectivity ratio,[2],> 71
same,CC50 at 48 h,[4],> 50000 nM
same,pEC50,Influenza A virus [13],6.15
N#Cc1ccc2c(c1)COc1ccccc1[C@@H]2N1[C@@H]2COCCN2C(=O)c2c(O)c(=O)ccn21,selectivity ratio,[2],> 5690
same,CC50 at 48 h,[4],> 50000 nM
same,pEC50,Influenza A virus [13],8.06
O=C1c2c(O)c(=O)ccn2N([C@H]2c3ccccc3COc3c2ccc(F)c3F)[C@@H]2COCCN12,selectivity ratio,[2],6460
same,CC50 at 48 h,[4],33300 nM
same,pEC50,Influenza A virus [13],8.29
O=C1c2c(O)c(=O)ccn2N([C@@H]2c3ccccc3SCc3c2ccc(F)c3F)[C@@H]2COCCN12 [BALOXAVIR],half-life at 1 µM,[1],3.03 h
same,pEC50,Influenza A virus [3],8.73
same,CC50 at 48 h,[4],9300 nM
same,half-life,[7],2.8 h
same,half-life at 1 µM,[8],2.68 h
same,MRT inf,[10],4.63 h
same,MRT inf,[12],3 h
same,pEC50,Influenza B virus,8.69
same,Tmax,[14],4.8 min
same,CLint,[17],8.6 µL/min/mg
same,Cmax,[18],205 ng/mL
same,CLint,[19],7.6 µL/min/mg
same,Tmax,[20],1.67 h
same,Cmax,[21],523 ng/mL
same,half-life,[22],3.78 h
same,inhibition,HEK293T [25],76.9%
O=C1c2c(O)c(=O)ccn2N([C@H]2c3ccccc3OCc3c(F)cccc32)[C@@H]2COCCN12,selectivity ratio,[2],> 6390
same,CC50 at 48 h,[4],> 50000 nM
same,pEC50,Influenza A virus [13],8.11
CCOC(=O)Cc1ccc2c(c1)[C@H](N1[C@@H]3COCCN3C(=O)c3c(O)c(=O)ccn31)c1ccccc1CO2,selectivity ratio,[2],> 1390
same,CC50 at 48 h,[4],> 50000 nM
same,pEC50,Influenza A virus [13],7.44
O=C1c2c(O)c(=O)ccn2N([C@@H]2c3ccccc3OCc3c2ccc(F)c3F)[C@@H]2COCCN12,selectivity ratio,[2],11400
same,CC50 at 48 h,[4],19100 nM
same,pEC50,Influenza A virus [13],8.77
O=C(O)Cc1ccccc1Nc1c(Cl)cccc1Cl [DICLOFENAC],half-life at 1 µM,[1],0.0938 h
same,half-life at 1 µM,[8],0.672 h
same,CLint,[17],34.4 µL/min/mg
same,CLint,[19],246 µL/min/mg
O=C1c2c(O)c(=O)ccn2N([C@@H]2c3ccccc3OCc3c(F)cccc32)[C@@H]2COCCN12,selectivity ratio,[2],> 5940
same,CC50 at 48 h,[4],> 50000 nM
same,pEC50,Influenza A virus [13],8.08
O=C1c2c(O)c(=O)ccn2N([C@H]2c3ccc(F)cc3COc3ccccc32)[C@@H]2COCCN12,half-life at 1 µM,[1],11.6 h
same,selectivity ratio,[2],> 64100
same,pEC50,Influenza A virus [3],8.48
same,CC50 at 48 h,[4],> 50000 nM
same,pEC50,Influenza A virus [5],8.78
same,Ratio,Influenza A virus [6],>5
same,half-life,[7],2.6 h
same,half-life at 1 µM,[8],2.45 h
same,Activity,Influenza A virus [9],Active
same,MRT inf,[10],4 h
same,inhibition,HEK293T [11],82.6%
same,MRT inf,[12],2.91 h
same,pEC50,Influenza A virus [13],9.11
same,pEC50,Influenza B virus,8.67
same,Tmax,[14],4.8 min
same,AUC(0-inf),[15],2790 ng·h/mL
same,bioavailability,[16],54.3%
same,CLint,[17],9.4 µL/min/mg
same,Cmax,[18],211 ng/mL
same,CLint,[19],2 µL/min/mg
same,Tmax,[20],1.33 h
same,Cmax,[21],548 ng/mL
same,half-life,[22],2.83 h
same,Activity,Influenza A virus [23],Active
same,AUC(0-inf),[24],343 ng·h/mL
O=C1c2c(O)c(=O)ccn2N([C@H]2c3ccccc3COc3cc(C(F)(F)F)ccc32)[C@@H]2COCCN12,selectivity ratio,[2],> 2010
same,CC50 at 48 h,[4],> 50000 nM
same,pEC50,Influenza A virus [13],7.60
